Results on 28 molecules are retold here after US11001569B2, “6-membered heteroaromatic substituted cyanoindoline derivatives as NIK inhibitors” (Janssen Pharmaceutica NV, priority 2016, dated 2021).

As usually defined, the melting point is the temperature, or range, at which the solid turns liquid.

SMILES strings stand for the structures. Where “and” joins values, the source holds several entries; their conditions need not be identical. Identical values can stand only once. Like-named read-outs stand apart in the source and are kept apart here. A value given as a limit tells only on which side of the number the result lay.

Data set [1] addresses recombinant human NF-kappaB-inducing Kinase (NIK/MAP3K14) (Homo sapiens, UniProt Q99558). Nature of the data set: Inhibition of auto-phosphorylation of recombinant human NIK/MAP3K14 activity (AlphaScreen). To be noted: 25 microM ATP, averaged over all measurements on all batches. The format is biochemical. (In general: Alpha assays give light when donor and acceptor beads are brought close together.)

Data set [2] relates to P-IKKα levels in L363 (NIK translocated multiple myeloma) cells. Nature of the data set: Effect of compounds on P-IKKα levels in L363 cells (Mesoscale sandwich immuno-assay). The data set is classed as cell-based, human. To be noted: 2 hr treatment, averaged values, read-out: Inhibition of pIKKα_L-363 (IC50 (nM)). The procedure, abridged:
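BAFF-stimulated (1 μg/ml stock) L363 cells preincubated 24 hr at 37° C, then treated 2 hr with compound (final 1% DMSO, 8-point 1:3 dilutions). Lysate P-IKKα measured by Mesoscale sandwich immunoassay; IC50 from sigmoidal fit of % inhibition versus log concentration.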

Data set [3] concerns JJN-3 (NIK translocated) multiple myeloma cells. Nature of the data set: Antiproliferative activity on JJN-3 multiple myeloma cells (CellTiter-Glo). The format is cell-based, human. The conditions noted are these: JJN-3 (NIK translocated) cells, 96 hr treatment, averaged values, read-out: JJN-3 Proliferation inhibition (IC50 (nM)). The procedure, abridged: (§1)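 Cells plated at 15000 (JJN3) or 20000 (KMS12BM) per well and treated 96 h at 37° C, 5% CO2, final DMSO 0.3%, 9-point 1:3 dilutions. Viability by CellTiter-Glo luminescence; time-zero blank subtracted, growth expressed as percent of untreated control.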
For orientation: In ATP-based viability assays light output follows the ATP content of the culture.

The test system of data set [4] is KMS12-BM (NIK WT) multiple myeloma cells. Nature of the data set: Antiproliferative activity on KMS12-BM multiple myeloma cells (CellTiter-Glo). The data set is classed as cell-based, human. The conditions noted are these: 96 hr treatment, averaged values, read-out: KMS-12 Proliferation inhibition (IC50 (nM)). The procedure, abridged: as §1

Sequence of recombinant human NF-kappaB-inducing Kinase (NIK/MAP3K14) (Q99558 whole entry): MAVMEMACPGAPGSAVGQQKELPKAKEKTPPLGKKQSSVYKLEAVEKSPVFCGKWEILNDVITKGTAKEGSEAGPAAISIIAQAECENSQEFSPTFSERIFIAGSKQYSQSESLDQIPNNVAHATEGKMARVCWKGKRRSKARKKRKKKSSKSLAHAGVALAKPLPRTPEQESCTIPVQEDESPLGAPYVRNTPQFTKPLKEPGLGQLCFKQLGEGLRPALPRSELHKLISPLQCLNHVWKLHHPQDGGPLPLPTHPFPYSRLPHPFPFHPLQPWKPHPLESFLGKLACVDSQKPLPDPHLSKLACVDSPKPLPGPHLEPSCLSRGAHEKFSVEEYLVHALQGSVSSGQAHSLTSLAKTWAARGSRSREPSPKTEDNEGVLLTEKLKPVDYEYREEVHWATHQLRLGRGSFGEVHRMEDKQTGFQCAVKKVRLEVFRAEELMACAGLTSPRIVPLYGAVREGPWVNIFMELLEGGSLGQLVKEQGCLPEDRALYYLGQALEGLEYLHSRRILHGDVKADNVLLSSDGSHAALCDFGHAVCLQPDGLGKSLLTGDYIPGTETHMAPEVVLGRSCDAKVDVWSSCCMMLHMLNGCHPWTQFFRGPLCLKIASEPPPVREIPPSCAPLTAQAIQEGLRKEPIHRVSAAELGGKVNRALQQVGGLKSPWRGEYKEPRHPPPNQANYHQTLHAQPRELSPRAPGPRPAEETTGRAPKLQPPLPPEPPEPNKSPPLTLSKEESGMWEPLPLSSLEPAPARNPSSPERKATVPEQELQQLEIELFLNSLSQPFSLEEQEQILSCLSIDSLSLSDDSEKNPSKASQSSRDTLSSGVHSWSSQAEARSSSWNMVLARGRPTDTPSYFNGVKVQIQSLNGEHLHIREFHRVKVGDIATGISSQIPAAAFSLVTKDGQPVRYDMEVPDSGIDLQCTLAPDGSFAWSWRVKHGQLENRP

With `C[C@]1(CO)CNc2c(C#N)cc(-c3ccnc(Nc4cc(Cl)cnc4C4CC4)n3)cc21` [Compound 46], the melting point came out at 234 °C. Further, the IC50 in data set [1] was 3 nM. In data set [2] (Homo sapiens, L-363, 2 h), the IC50 worked out at 4.7 nM. The IC50 in data set [3] (Homo sapiens, JJN-3, 96 h) was 28 nM. Further, the IC50 in data set [4] (Homo sapiens, KMS-12-BM, 96 h) is around 7940 nM.
The matching figures for `COc1nc(/C=C/C(=O)N(C)C)ccc1Nc1nccc(-c2cc(C#N)c3c(c2)[C@@](C)(CO)CN3)n1` [Compound 48]: 192 °C, 2.9 nM, 1.2 nM, around 295 nM and above 10000 nM.
The matching figures for `COc1nc(CCC(=O)N(C)C)ccc1Nc1nccc(-c2cc(C#N)c3c(c2)[C@@](C)(CO)CN3)n1` [Compound 49]: 195 °C, 1.6 nM, 0.8 nM, 35 nM and around 9330 nM.
The matching figures for `Cc1ncc(C#N)cc1Nc1nccc(-c2cc(C#N)c3c(c2)[C@@](C)(CO)CN3)n1` [Compound 50]: 247 °C, 1.3 nM, 4.2 nM, 145 nM and 6610 nM.
Molecule `COCCN(C)c1nc(C)c(Nc2nccc(-c3cc(C#N)c4c(c3)[C@@](C)(CO)CN4)n2)cc1Cl` [Compound 51] had a melting point of 152 °C. In addition, the IC50 in data set [1] amounted to 3 nM. Moreover, in data set [2] (Homo sapiens, L-363, 2 h), the IC50 worked out at 2.8 nM. The IC50 in data set [3] (Homo sapiens, JJN-3, 96 h) was 31 nM. Moreover, the IC50 in data set [4] (Homo sapiens, KMS-12-BM, 96 h) is above 10000 nM.
The matching figures for `CN(C)C(=O)COc1ncc(Cl)cc1Nc1nccc(-c2cc(C#N)c3c(c2)[C@@](C)(CO)CN3)n1` [Compound 52]: 281 °C, around 1.48 nM, 0.7 nM, 251 nM and 871 nM.
On to `COc1ncc(C)cc1Nc1nccc(-c2cc(C#N)c3c(c2)[C@@](C)(CO)CN3)n1` [Compound 59], for which the melting point was 234 °C and 237 °C. For the same molecule, the IC50 in data set [1] turned out to be 2.5 nM. Also, in data set [2] (Homo sapiens, L-363, 2 h), the IC50 was found to be 13.2 nM. In addition, in data set [3] (Homo sapiens, JJN-3, 96 h), the IC50 was found to be 16 nM. Moreover, the IC50 in data set [4] (Homo sapiens, KMS-12-BM, 96 h) was above 10000 nM.
`COCCOc1ncc(F)cc1Nc1nccc(-c2cc(C#N)c3c(c2)[C@@](C)(CO)CN3)n1` [Compound 61] showed a melting point of 186 °C. Besides, the IC50 in data set [1] amounted to 3 nM. For the same molecule, in data set [2] (Homo sapiens, L-363, 2 h), the IC50 is 19.5 nM. For the same molecule, the IC50 in data set [3] (Homo sapiens, JJN-3, 96 h) came to 389 nM. The IC50 in data set [4] (Homo sapiens, KMS-12-BM, 96 h) was above 10000 nM.
The matching figures for `CCCc1ncc(C#N)cc1Nc1nccc(-c2cc(C#N)c3c(c2)[C@@](C)(CO)CN3)n1` [Compound 63]: 193 °C, 2.9 nM, 17.4 nM, 98 nM and above 10000 nM.
The molecule `C[C@]1(CO)CNc2c(C#N)cc(-c3ccnc(Nc4cc(C#N)cnc4CCC4CC4)n3)cc21` [Compound 64] returned a melting point of 145 °C. In addition, in data set [1], the IC50 came out at 4.7 nM. In addition, the IC50 in data set [2] (Homo sapiens, L-363, 2 h) was 27.5 nM. Moreover, the IC50 in data set [3] (Homo sapiens, JJN-3, 96 h) stood at 35 nM. In addition, the IC50 in data set [4] (Homo sapiens, KMS-12-BM, 96 h) was determined as 6460 nM.
The matching figures for `COCCCc1ncc(C#N)cc1Nc1nccc(-c2cc(C#N)c3c(c2)[C@@](C)(CO)CN3)n1` [Compound 65]: 158 °C, 4.5 nM, 15.5 nM, 263 nM and above 10000 nM.
The matching figures for `CCCCc1ncc(C#N)cc1Nc1nccc(-c2cc(C#N)c3c(c2)[C@@](C)(CO)CN3)n1` [Compound 66]: 178 °C, 3.3 nM, around 141 nM, 41 nM and above 10000 nM.
The matching figures for `COCCOc1ncc(C)cc1Nc1nccc(-c2cc(C#N)c3c(c2)[C@@](C)(CO)CN3)n1` [Compound 69]: 186 °C, 3.2 nM, around 129 nM, 263 nM and above 10000 nM.
The molecule `Cc1nc(/C=C/C(=O)N(C)C)ccc1Nc1nccc(-c2cc(C#N)c3c(c2)[C@@](C)(CO)CN3)n1` [Compound 73] returned a melting point of 231 °C. Further, the IC50 in data set [1] is 1.6 nM. Moreover, the IC50 in data set [2] (Homo sapiens, L-363, 2 h) was around 13 nM. The IC50 in data set [3] (Homo sapiens, JJN-3, 96 h) worked out at 144 nM. For the same molecule, the IC50 in data set [4] (Homo sapiens, KMS-12-BM, 96 h) is around 234 nM.
`C[C@]1(CO)CNc2c(C#N)cc(-c3ccnc(Nc4cc(C#N)cnc4OCC4CC4)n3)cc21` [Compound 74]: the melting point worked out at 206 °C. Further, the IC50 in data set [1] came to 16.2 nM. The IC50 in data set [2] (Homo sapiens, L-363, 2 h) was around 120 nM. The IC50 in data set [3] (Homo sapiens, JJN-3, 96 h) is 141 nM. In data set [4] (Homo sapiens, KMS-12-BM, 96 h), the IC50 was above 10000 nM.
The matching figures for `CC1(COc2ncc(C#N)cc2Nc2nccc(-c3cc(C#N)c4c(c3)[C@@](C)(CO)CN4)n2)COC1` [Compound 76]: 162 °C, 5.1 nM, 26.9 nM, above 10000 nM and above 10000 nM.
The matching figures for `CC(C)(O)COc1ncc(C#N)cc1Nc1nccc(-c2cc(C#N)c3c(c2)[C@@](C)(CO)CN3)n1` [Compound 77]: 162 °C, 5 nM, 25.7 nM, 60 nM and above 10000 nM.
`CC(C)(O)c1ccc(Nc2nccc(-c3cc(C#N)c4c(c3)[C@@](C)(CO)CN4)n2)c(CCC2CC2)n1` [Compound 81] returned a melting point of 318 °C. The IC50 in data set [1] is 4.7 nM. The IC50 in data set [2] (Homo sapiens, L-363, 2 h) stood at 20.9 nM. Further, in data set [3] (Homo sapiens, JJN-3, 96 h), the IC50 came out at 513 nM. In addition, the IC50 in data set [4] (Homo sapiens, KMS-12-BM, 96 h) was above 10000 nM.
The matching figures for `Cc1cnc(OCC2CC2)c(Nc2nccc(-c3cc(C#N)c4c(c3)[C@@](C)(CO)CN4)n2)c1` [Compound 86]: 206 °C, 12 nM, 53.7 nM, 1180 nM and above 10000 nM.
The matching figures for `CN(C)C(=O)/C=C/c1ccc(Nc2nccc(-c3cc(C#N)c4c(c3)[C@@](C)(CO)CN4)n2)c(CCC2CC2)n1` [Compound 88]: 198 °C, 4.2 nM, 22.4 nM, 148 nM and above 10000 nM.
On to `CN(C)C(=O)CCc1ccc(Nc2nccc(-c3cc(C#N)c4c(c3)[C@@](C)(CO)CN4)n2)c(CCC2CC2)n1` [Compound 89], for which the melting point was determined as 301 °C. Moreover, the IC50 in data set [1] is 3.6 nM. Besides, the IC50 in data set [2] (Homo sapiens, L-363, 2 h) worked out at 14.8 nM. For the same molecule, the IC50 in data set [3] (Homo sapiens, JJN-3, 96 h) is 912 nM. Also, the IC50 in data set [4] (Homo sapiens, KMS-12-BM, 96 h) was above 10000 nM.
`COc1nc(-c2cnn(C)c2)c(C)cc1Nc1nccc(-c2cc(C#N)c3c(c2)[C@@](C)(CO)CN3)n1` [Compound 91] came in with a melting point of 166 °C. Further, in data set [1], the IC50 was 8.9 nM. Moreover, the IC50 in data set [2] (Homo sapiens, L-363, 2 h) was 5.4 nM. Besides, the IC50 in data set [3] (Homo sapiens, JJN-3, 96 h) worked out at 81 nM. The IC50 in data set [4] (Homo sapiens, KMS-12-BM, 96 h) is above 10000 nM.
The matching figures for `CNC(=O)c1cnc(C)c(Nc2nccc(-c3cc(C#N)c4c(c3)[C@@](C)(CO)CN4)n2)c1` [Compound 93]: 165 °C, 2.1 nM, 5.6 nM, 1440 nM and 9550 nM.
The matching figures for `Cc1cnc(OC2CCN(C)CC2)c(Nc2nccc(-c3cc(C#N)c4c(c3)[C@@](C)(CO)CN4)n2)c1` [Compound 146]: 135 °C, 2.8 nM, 4.1 nM, 5.2 nM and 7080 nM.
The matching figures for `Cc1cnc(CCN2CC(F)C2)c(Nc2nccc(-c3cc(C#N)c4c(c3)[C@@](C)(CO)CN4)n2)c1` [Compound 150]: 171 °C, 12 nM, 25.7 nM, 132 nM and above 10000 nM.
On to `Cc1cnc(OC2CN(C)CC2F)c(Nc2nccc(-c3cc(C#N)c4c(c3)[C@@](C)(CO)CN4)n2)c1` (some centres unmarked) [Compound 153], for which the melting point stood at 180 °C. In addition, in data set [1], the IC50 is 5.8 nM. For the same molecule, the IC50 in data set [2] was found to be 9.3 nM. Further, the IC50 in data set [3] (Homo sapiens, JJN-3, 96 h) was determined as 240 nM. Further, in data set [4] (Homo sapiens, KMS-12-BM, 96 h), the IC50 was around 5890 nM.
`Cc1cnc(OC2CN(C)CC2F)c(Nc2nccc(-c3cc(C#N)c4c(c3)[C@@](C)(CO)CN4)n2)c1` (some centres unmarked) [Compound 154] had a melting point of 185 °C. In data set [1], the IC50 amounted to 7.2 nM. Further, the IC50 in data set [2] came out at 3 nM. In data set [3], the IC50 was 148 nM. The IC50 in data set [4] was around 7940 nM.
The matching figures for `Cc1cnc(OC2CCN(C)CC2F)c(Nc2nccc(-c3cc(C#N)c4c(c3)[C@@](C)(CO)CN4)n2)c1` (some centres unmarked) [Compound 155]: 220 °C, 12 nM, 19.5 nM, 81 nM and around 2880 nM.
